Where “and” joins values, the source holds several entries; their conditions need not be identical. Identical values can stand only once. Inconclusive results and toxic doses are left out. Cut-off read from the data, not from the text of the source: active = T/C of 150% or more; inactive = T/C below 125%.
Tested on: L1210 leukemia ip in BDF1 mice, survival T/C
Test: NCI In Vivo Anticancer Drug Screen. Data for tumor model L1210 Leukemia (intraperitoneal) in B6D2F1 (BDF1) mice
Conditions: endpoint: mean survival time, higher = longer survival
Method in brief: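 Mice bearing the transplanted tumor received compound or vehicle. Survival of the treated group was divided by that of the vehicle-treated control group to give the ratio.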

[1] = dose: 100.0 mg/kg/injection, schedule: Q01DX009 (ip), vehicle: saline with Tween-80
[2] = dose: 200.0 mg/kg/injection, schedule: Q01DX009 (ip), vehicle: saline with Tween-80
[3] = dose: 100.0 mg/kg/injection, schedule: Q04DX003 (ip), vehicle: saline with Tween-80
[4] = dose: 200.0 mg/kg/injection, schedule: Q04DX003 (ip), vehicle: saline with Tween-80
[5] = dose: 400.0 mg/kg/injection, schedule: Q01DX009 (ip), vehicle: saline with Tween-80
[6] = dose: 400.0 mg/kg/injection, schedule: Q04DX003 (ip), vehicle: saline with Tween-80
[7] = dose: 50.0 mg/kg/injection, schedule: Q01DX001 (ip), vehicle: carboxymethylcellulose (CMC)
[8] = dose: 100.0 mg/kg/injection, schedule: Q04DX003 (ip), vehicle: Klucel (hydroxypropylcellulose) (HPC)
[9] = dose: 200.0 mg/kg/injection, schedule: Q04DX003 (ip), vehicle: Klucel (hydroxypropylcellulose) (HPC)
[10] = dose: 400.0 mg/kg/injection, schedule: Q04DX003 (ip), vehicle: Klucel (hydroxypropylcellulose) (HPC)
[11] = dose: 100.0 mg/kg/injection, schedule: Q01DX009 (ip), vehicle: Klucel (hydroxypropylcellulose) (HPC)
[12] = dose: 200.0 mg/kg/injection, schedule: Q01DX009 (ip), vehicle: Klucel (hydroxypropylcellulose) (HPC)
[13] = dose: 400.0 mg/kg/injection, schedule: Q01DX009 (ip), vehicle: Klucel (hydroxypropylcellulose) (HPC)

Measured: T/C

ClC1=C(Cl)C(Cl)(Cl)C(Cl)=C1Cl
inactive: dose: 0.25 mg/kg/injection, schedule: Q04DX002 (ip), vehicle: Klucel (hydroxypropylcellulose) (HPC) 103 % of control | dose: 0.5 mg/kg/injection, schedule: Q04DX002 (ip), vehicle: Klucel (hydroxypropylcellulose) (HPC) 107 % of control | dose: 1.0 mg/kg/injection, schedule: Q04DX002 (ip), vehicle: Klucel (hydroxypropylcellulose) (HPC) 88 % of control

NC(=O)C1C(=O)OC2(CCCCC2)C1c1ccccc1 (stereo not given)
inactive: dose: 100.0 mg/kg/injection, schedule: Q01DX001 (ip), vehicle: saline 89 % of control | dose: 200.0 mg/kg/injection, schedule: Q01DX001 (ip), vehicle: saline 87 % of control | dose: 400.0 mg/kg/injection, schedule: Q01DX001 (ip), vehicle: saline 94 % of control

CC(C)(C)Sc1ccncc1
inactive: [1] 98 % of control | [2] 88 % of control

COC1=CC=C2C3Cc4ccc(OC)c(O)c4C2(C1)CN3C (stereo not given)
inactive: dose: 100.0 mg/kg/injection, schedule: Q04DX003 (ip), vehicle: other 96 % of control

CC(=O)Nc1cccc2c1C(=O)OC2=O
inactive: [1] 105 % of control | [3] 102 % of control | [2] 89 % of control | [4] 99 % of control | [5] 93 % of control | [6] 94 % of control

COc1ccc(CNCCO)cc1
inactive: dose: 100.0 mg/kg/injection, schedule: Q01DX009 (ip), vehicle: saline 96 % of control | dose: 100.0 mg/kg/injection, schedule: Q04DX003 (ip), vehicle: saline 96 % of control | dose: 200.0 mg/kg/injection, schedule: Q01DX009 (ip), vehicle: saline 91 % of control | dose: 200.0 mg/kg/injection, schedule: Q04DX003 (ip), vehicle: saline 98 % of control | dose: 400.0 mg/kg/injection, schedule: Q01DX009 (ip), vehicle: saline 97 % of control | dose: 400.0 mg/kg/injection, schedule: Q04DX003 (ip), vehicle: saline 93 % of control

CN(C)CCC(CN=C(N)N)c1cccc2ccccc12 (stereo not given)
inactive: dose: 12.5 mg/kg/injection, schedule: Q01DX009 (ip), vehicle: saline 100 % of control | dose: 25.0 mg/kg/injection, schedule: Q01DX009 (ip), vehicle: saline 100 % of control | dose: 25.0 mg/kg/injection, schedule: Q04DX002 (ip), vehicle: saline 93 % of control | dose: 50.0 mg/kg/injection, schedule: Q01DX009 (ip), vehicle: saline 101 % of control | dose: 50.0 mg/kg/injection, schedule: Q04DX002 (ip), vehicle: saline 97 % of control

CN(CC#CCOc1ccc(Cl)cc1)c1ccccc1
inactive: dose: 12.5 mg/kg/injection, schedule: Q01DX001 (ip), vehicle: carboxymethylcellulose (CMC) 96 % of control | dose: 12.5 mg/kg/injection, schedule: Q01DX009 (ip), vehicle: carboxymethylcellulose (CMC) 97 % of control and 90 % of control | dose: 12.5 mg/kg/injection, schedule: Q04DX002 (ip), vehicle: carboxymethylcellulose (CMC) 93 % of control and 106 % of control | dose: 12.5 mg/kg/injection, schedule: Q04DX003 (ip), vehicle: carboxymethylcellulose (CMC) 103 % of control | dose: 25.0 mg/kg/injection, schedule: Q01DX001 (ip), vehicle: carboxymethylcellulose (CMC) 96 % of control | dose: 25.0 mg/kg/injection, schedule: Q01DX009 (ip), vehicle: carboxymethylcellulose (CMC) 93 % of control | dose: 25.0 mg/kg/injection, schedule: Q04DX002 (ip), vehicle: carboxymethylcellulose (CMC) 93 % of control and 110 % of control | dose: 25.0 mg/kg/injection, schedule: Q04DX003 (ip), vehicle: carboxymethylcellulose (CMC) 102 % of control | [7] 96 % of control | dose: 50.0 mg/kg/injection, schedule: Q01DX009 (ip), vehicle: carboxymethylcellulose (CMC) 93 % of control and 90 % of control | dose: 50.0 mg/kg/injection, schedule: Q04DX002 (ip), vehicle: carboxymethylcellulose (CMC) 92 % of control and 94 % of control | dose: 50.0 mg/kg/injection, schedule: Q04DX003 (ip), vehicle: carboxymethylcellulose (CMC) 97 % of control | dose: 100.0 mg/kg/injection, schedule: Q04DX002 (ip), vehicle: carboxymethylcellulose (CMC) 95 % of control | dose: 200.0 mg/kg/injection, schedule: Q04DX002 (ip), vehicle: carboxymethylcellulose (CMC) 88 % of control | dose: 400.0 mg/kg/injection, schedule: Q04DX002 (ip), vehicle: carboxymethylcellulose (CMC) 88 % of control

Cc1c(C)c2cc3ccc(Cl)cc3nc2c2ccccc12
inactive: [8] 103 % of control | [9] 105 % of control | [10] 110 % of control

CC(=O)CN1C(=O)c2ccccc2C1=O
inactive: [11] 102 % of control | [8] 111 % of control | [12] 108 % of control | [9] 104 % of control | [13] 105 % of control | [10] 98 % of control

CCOC(=O)Nc1ccccc1-c1ccccc1
inactive: dose: 100.0 mg/kg/injection, schedule: Q04DX002 (sc), vehicle: olive oil, sesame oil, peanut oil 94 % of control | dose: 200.0 mg/kg/injection, schedule: Q04DX002 (sc), vehicle: olive oil, sesame oil, peanut oil 105 % of control | dose: 400.0 mg/kg/injection, schedule: Q04DX002 (sc), vehicle: olive oil, sesame oil, peanut oil 97 % of control

O=C1C(=O)c2ccccc2C(O)=C1CC=C1CCCCC1
inactive: dose: 100.0 mg/kg/injection, schedule: Q01DX001 (ip), vehicle: water 100 % of control | dose: 100.0 mg/kg/injection, schedule: Q01DX009 (ip), vehicle: water 103 % of control | dose: 200.0 mg/kg/injection, schedule: Q01DX009 (ip), vehicle: water 98 % of control | dose: 400.0 mg/kg/injection, schedule: Q01DX001 (ip), vehicle: water 108 % of control

CCOc1ccc(NC(=O)c2cccc(C(=O)Nc3ccc(OCC)cc3)c2)cc1
inactive: [11] 104 % of control | [8] 91 % of control | [12] 101 % of control | [9] 98 % of control | [13] 95 % of control | [10] 93 % of control

CC(=O)Nc1ccccc1-c1ccc([N+](=O)[O-])cc1
inactive: [3] 110 % of control | [4] 101 % of control | [6] 101 % of control

O=C1C=CC(=O)N1c1cccc2c(N3C(=O)C=CC3=O)cccc12
inactive: dose: 11.1 mg/kg/injection, schedule: Q01DX Z (ip), vehicle: methylcellulose (MC) 89 % of control | dose: 16.6 mg/kg/injection, schedule: Q01DX Z (ip), vehicle: methylcellulose (MC) 95 % of control | dose: 25.0 mg/kg/injection, schedule: Q01DX Z (ip), vehicle: methylcellulose (MC) 104 % of control

CN1CN(c2ccccc2)C2(CCN(CCC3Oc4ccccc4O3)CC2)C1=O
inactive: dose: 100.0 mg/kg/injection, schedule: Q01DX001 (ip), vehicle: Klucel (hydroxypropylcellulose) (HPC) 102 % of control | dose: 200.0 mg/kg/injection, schedule: Q01DX001 (ip), vehicle: Klucel (hydroxypropylcellulose) (HPC) 98 % of control | dose: 400.0 mg/kg/injection, schedule: Q01DX001 (ip), vehicle: Klucel (hydroxypropylcellulose) (HPC) 103 % of control

CC1(C)C2CCC(O)C1C2 (stereo not given)
inactive: dose: 100.0 mg/kg/injection, schedule: Q01DX001 (ip), vehicle: saline with Tween-80 104 % of control | dose: 200.0 mg/kg/injection, schedule: Q01DX001 (ip), vehicle: saline with Tween-80 97 % of control | dose: 400.0 mg/kg/injection, schedule: Q01DX001 (ip), vehicle: saline with Tween-80 90 % of control

CCOc1c(Cl)cc(Cl)cc1C(c1ccc(Cl)cc1S(=O)(=O)O)c1cc(Cl)cc(Cl)c1OCC
inactive: [3] 89 % of control

Cc1ccc(S(=O)(=O)NC(C)(C)CN)cc1
inactive: dose: 75.0 mg/kg/injection, schedule: Q01DX001 (ip), vehicle: other 103 % of control | dose: 150.0 mg/kg/injection, schedule: Q01DX001 (ip), vehicle: other 101 % of control | dose: 300.0 mg/kg/injection, schedule: Q01DX001 (ip), vehicle: other 95 % of control

CC(=O)NC(C)(C)Cc1ccccc1
inactive: [7] 89 % of control | dose: 100.0 mg/kg/injection, schedule: Q01DX001 (ip), vehicle: carboxymethylcellulose (CMC) 94 % of control | [1] 111 % of control | [2] 101 % of control | dose: 400.0 mg/kg/injection, schedule: Q01DX001 (ip), vehicle: carboxymethylcellulose (CMC) 94 % of control | [5] 86 % of control
